Data set [1] can be described thus: MDR1 LLC-PK1 and BCRP MDCKII permeability assay: permeability coefficient (Papp). Type of data set: in vitro ADME. The text has this:
(§1) Final organic concentration in the assay was 1%.

In another data set the target is BCRP (Homo sapiens (Human), UniProt Q9UNQ0). The experiment in a line: BCRP MDCKII permeability assay: efflux ratio. The data set is classed as in vitro ADME. The settings on record: dog.
The target of data set [2] is full-length FLAG-tagged B-Raf(V600E) (Homo sapiens (Human), UniProt P15056, V600E). The experiment in a line: BRAF V600E enzyme assay (TR-FRET competitive displacement). Type of data set: binding. The method, boiled down:
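Displacement of 50 nM Tracer 1710 from 5 nM full-length N-terminally FLAG-tagged B-Raf(V600E), detected by TR-FRET with 0.5 nM Eu anti-FLAG antibody, in 25 mM HEPES pH 7.4, 10 mM MgCl2, 2% DMSO; 60 min at ~22 °C. Compounds 11-point, 3-fold from 10 μM; IC50 from 4-parameter fit at 50 POC.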

Another data set concerns A375 cells. In words: Cellular phospho-ERK inhibition assay in A375 cells. Type of data set: cell-based. The settings on record: Homo sapiens, A-375, A375 cells (head prints A357), 2 hours treatment, read-out: A357 cell IC50. The method, boiled down:
(§2)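 A375 (DMEM) or H1755 (RPMI) cells in 10% FBS treated 2 h at 37 °C with 9-point series, 66 pM–10 μM, 0.25% DMSO. Phospho-ERK1/2 (Thr202/Tyr204) measured by In Cell Western, normalised to GAPDH and to DMSO and 10 μM binimetinib controls; IC50 by 4-parameter fit.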

The next data set deals with P-gp (MDR1) (Homo sapiens (Human), UniProt P08183). In words: MDR1 LLC-PK1 permeability assay: efflux ratio. The data set is classed as in vitro ADME. The settings on record: pig.
Description: as §1

A short description of data set [3]: PK (free brain-to-free plasma ratio) (mouse). The data set is classed as in vivo. The settings on record: male CD-1 mice, oral gavage 10 mg/kg, unbound brain-to-unbound plasma, read-out: B/P ratio (free). The procedure: The ability of representative compounds to penetrate the BBB in mice was determined by evaluating the unbound brain-to-unbound plasma (also referred to as free brain-to-free plasma) concentration ratio in male CD-1 mice.
Brain compound levels were generated from oral mouse PK dosing with typical sampling times of 2, 4, 8, 12 and 24 hours post oral gavage dosing at 10 mg/kg. Brain samples were stored at −20±5° C. prior to analysis. Concentrations of test compound in mouse brain homogenate were determined by liquid chromatography tandem mass spectrometry (LC-MS/MS) following protein precipitation with acetonitrile. A 12-point calibration curve, ranging from 0.5 to 10,000 ng/mL, was prepared in duplicate. A solution of 400 μg/mL of test compound in dimethyl sulfoxide (DMSO) was serially diluted (3-fold) in 100% DMSO, and then 2.5 μL of each standard solution was added to 100 μL of naïve male CD-1 mice brain homogenate. To mimic the extraction in the standard curve, 2.5 μL of DMSO was added to all test samples. Both calibration and test brain homogenate samples were spiked with 10 μL of an IS (1 μg/mL of a structural analog). Brain homogenate was generated by adding 0.75 mL of 4:1 water:MeOH to each brain sample followed by homogenization for 1 minute with bead beater tubes a 6 m/s using an MP Fast Prep-24®. Proteins were precipitated from 100 μL of brain homogenate sample by the addition of 300 μL of acetonitrile. Samples were vortex-mixed for 5 minutes and spun in an Allegra X-12R centrifuge (Beckman Coulter, Fullerton, CA; SX4750A rotor) for 15 min at approximately 1,500×g at 4° C. A 100 μL aliquot of each supernatant was transferred via a 550 μL Personal Pipettor (Apricot Designs, Monrovia, CA) to 96-well plates and diluted 1:1 with HPLC grade water. The resulting plates were sealed with aluminum for LC-MS/MS analysis.
Brain-to-plasma ratios were calculated using the concentration of compound measured in the brain divided by the concentration of compound measured in the plasma. Brain-to-plasma ratios were always generated from a single animal and time point. Free brain-to-free plasma ratios were calculated by multiplying the brain-to-plasma ratio by the in vitro brain homogenate free fraction divided by the in vitro plasma free fraction using the following equation: (B/P)*(Bfu/Pfu). Table C provides the free brain-to-free plasma ratios of compounds disclosed herein.

The test system of a further data set is H1755 cells. In words: Cellular phospho-ERK inhibition assay in H1755 cells. Type of data set: cell-based. The settings on record: Homo sapiens, NCI-H1755, 2 hours treatment, read-out: H1755 Cell IC50. A digest of the protocol: as §2
[4] abbreviates: averaged IC50, TR-FRET tracer displacement, 60 min.

From patent publication US12303509B2, “Compounds for the treatment of BRAF-associated diseases and disorders” (Pfizer Inc., priority 2020, dated 2025) come the findings set out here.

Where a name gives a salt, the structure may show the parent alone. Read-outs that look alike come from different tables or passages of the source.

P-gp (MDR1), sequence (P08183 whole entry, species assumed): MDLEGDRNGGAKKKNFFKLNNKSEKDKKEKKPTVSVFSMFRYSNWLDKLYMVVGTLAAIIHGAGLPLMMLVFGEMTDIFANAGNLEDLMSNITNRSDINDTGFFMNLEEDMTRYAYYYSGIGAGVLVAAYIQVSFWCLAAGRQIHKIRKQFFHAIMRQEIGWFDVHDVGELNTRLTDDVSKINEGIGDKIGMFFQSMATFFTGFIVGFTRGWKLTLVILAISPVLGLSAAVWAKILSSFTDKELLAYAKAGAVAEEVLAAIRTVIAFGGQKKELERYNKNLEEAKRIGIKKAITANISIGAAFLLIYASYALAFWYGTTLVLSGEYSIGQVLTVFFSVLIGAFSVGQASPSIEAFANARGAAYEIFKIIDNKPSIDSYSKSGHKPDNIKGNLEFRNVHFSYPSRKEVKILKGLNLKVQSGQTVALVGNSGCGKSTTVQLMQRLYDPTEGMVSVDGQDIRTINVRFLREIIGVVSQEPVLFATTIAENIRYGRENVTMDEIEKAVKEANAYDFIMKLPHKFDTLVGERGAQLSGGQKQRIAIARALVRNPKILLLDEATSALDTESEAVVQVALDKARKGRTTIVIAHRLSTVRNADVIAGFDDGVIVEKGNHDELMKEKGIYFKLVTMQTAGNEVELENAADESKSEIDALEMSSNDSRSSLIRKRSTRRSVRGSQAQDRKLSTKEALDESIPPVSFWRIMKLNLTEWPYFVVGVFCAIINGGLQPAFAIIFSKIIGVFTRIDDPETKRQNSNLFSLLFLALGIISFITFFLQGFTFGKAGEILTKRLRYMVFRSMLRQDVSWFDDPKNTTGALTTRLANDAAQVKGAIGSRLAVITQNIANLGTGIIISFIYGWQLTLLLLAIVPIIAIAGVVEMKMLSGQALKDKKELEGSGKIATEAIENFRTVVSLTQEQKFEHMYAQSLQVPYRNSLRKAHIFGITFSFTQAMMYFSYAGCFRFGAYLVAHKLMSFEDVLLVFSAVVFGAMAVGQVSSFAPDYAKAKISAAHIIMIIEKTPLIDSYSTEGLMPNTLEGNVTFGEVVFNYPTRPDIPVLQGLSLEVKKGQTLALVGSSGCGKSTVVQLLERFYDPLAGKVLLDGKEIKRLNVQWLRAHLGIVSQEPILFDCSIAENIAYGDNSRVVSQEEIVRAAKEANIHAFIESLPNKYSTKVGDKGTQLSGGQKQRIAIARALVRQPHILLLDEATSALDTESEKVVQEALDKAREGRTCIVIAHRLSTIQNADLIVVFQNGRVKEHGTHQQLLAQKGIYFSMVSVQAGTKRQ
full-length FLAG-tagged B-Raf(V600E), sequence (P15056 whole entry V600E): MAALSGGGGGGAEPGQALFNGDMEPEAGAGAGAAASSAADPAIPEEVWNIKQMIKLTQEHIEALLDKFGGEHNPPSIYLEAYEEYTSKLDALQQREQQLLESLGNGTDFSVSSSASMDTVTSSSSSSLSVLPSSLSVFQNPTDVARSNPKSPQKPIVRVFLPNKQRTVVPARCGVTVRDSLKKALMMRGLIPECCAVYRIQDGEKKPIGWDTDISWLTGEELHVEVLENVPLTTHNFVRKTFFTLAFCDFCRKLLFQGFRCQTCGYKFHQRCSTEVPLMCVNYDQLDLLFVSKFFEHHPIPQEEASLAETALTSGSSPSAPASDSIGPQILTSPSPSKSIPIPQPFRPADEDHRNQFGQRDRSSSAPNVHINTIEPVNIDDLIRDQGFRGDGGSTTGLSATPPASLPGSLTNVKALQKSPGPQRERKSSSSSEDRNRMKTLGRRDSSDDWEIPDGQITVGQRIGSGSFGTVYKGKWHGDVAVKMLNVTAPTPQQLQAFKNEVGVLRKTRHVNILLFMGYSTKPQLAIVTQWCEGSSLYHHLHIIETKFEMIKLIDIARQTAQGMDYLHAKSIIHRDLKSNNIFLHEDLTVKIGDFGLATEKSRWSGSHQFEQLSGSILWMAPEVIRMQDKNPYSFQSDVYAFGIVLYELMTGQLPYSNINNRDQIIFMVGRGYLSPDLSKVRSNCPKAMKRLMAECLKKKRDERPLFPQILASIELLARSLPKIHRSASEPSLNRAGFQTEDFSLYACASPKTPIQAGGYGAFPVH
BCRP, sequence (Q9UNQ0 whole entry): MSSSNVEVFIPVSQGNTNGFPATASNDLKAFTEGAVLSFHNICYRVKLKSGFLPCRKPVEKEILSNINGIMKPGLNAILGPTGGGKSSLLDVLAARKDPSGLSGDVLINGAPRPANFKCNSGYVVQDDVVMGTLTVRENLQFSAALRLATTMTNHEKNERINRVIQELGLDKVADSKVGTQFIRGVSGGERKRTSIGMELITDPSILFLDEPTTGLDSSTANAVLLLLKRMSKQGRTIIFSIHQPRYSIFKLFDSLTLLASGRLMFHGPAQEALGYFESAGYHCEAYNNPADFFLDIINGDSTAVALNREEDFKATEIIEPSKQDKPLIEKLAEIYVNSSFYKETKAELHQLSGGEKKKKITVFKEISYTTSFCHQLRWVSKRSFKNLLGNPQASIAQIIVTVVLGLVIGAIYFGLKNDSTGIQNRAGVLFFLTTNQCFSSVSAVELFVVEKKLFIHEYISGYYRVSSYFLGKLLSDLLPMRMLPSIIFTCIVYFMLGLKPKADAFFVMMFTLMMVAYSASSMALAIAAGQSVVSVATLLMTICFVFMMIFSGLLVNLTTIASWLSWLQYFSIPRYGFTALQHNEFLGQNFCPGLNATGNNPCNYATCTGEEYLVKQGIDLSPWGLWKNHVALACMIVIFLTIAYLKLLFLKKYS

In general, Papp refers to a coefficient for how fast a substance crosses the barrier. Usually efflux ratio stands for the permeability from basolateral to apical divided by that in the opposite direction, in the common usage. What is called IC50 is the concentration that inhibits the measured activity by half. Take `Cn1cnc2ccc(Nc3c(F)ccc(NS(=O)(=O)N4CC[C@@H](F)C4)c3Cl)c(Cl)c2c1=O` [Example 19, (R)-N-(2-chloro-3-((5-chloro-3-methyl-4-oxo-3,4-dihydroquinazolin-6-yl)amino)-4-fluorophenyl)-3-fluoropyrrolidine-1-sulfonamide]: the apparent permeability coefficient (Papp) at 2 h, 1 µM in data set [1] is 300 nm/s. The efflux ratio at 2 h, 1 µM on BCRP was 1.3; on P-gp (MDR1), 2.1. The concentration for half-maximal inhibition (IC50) in data set [2] (setting [4]) was 4 nM; in the data set on A375 cells, 5 nM; in the data set on H1755 cells, 39 nM. Besides, the Kp in data set [3] was in the range of 0.61 to 0.83.

`Cn1cnc2ccc(Oc3c(F)ccc(NS(=O)(=O)N4CC[C@@H](F)C4)c3Cl)c(F)c2c1=O` [Example 20, (R)-N-(2-chloro-4-fluoro-3-((5-fluoro-3-methyl-4-oxo-3,4-dihydroquinazolin-6-yl)oxy)phenyl)-3-fluoropyrrolidine-1-sulfonamide] registered a Papp at 2 h, 1 µM in data set [1] of 370 nm/s. Besides, the efflux ratio at 2 h, 1 µM was 1.8 on BCRP and 2.2 on P-gp (MDR1). The concentration for half-maximal inhibition (IC50) in data set [2] (setting [4]) came out at 3 nM; in the data set on A375 cells, 2 nM; with H1755 cells it was 29 nM. Moreover, the Kp in data set [3] lay in the range of 0.4 to 0.58.

Take `Cn1cnc2ccc(Nc3c(F)ccc(NS(=O)(=O)N4CC[C@@H](OC(F)F)C4)c3Cl)c(Cl)c2c1=O` [Example 29, (R)-N-(2-chloro-3-((5-chloro-3-methyl-4-oxo-3,4-dihydroquinazolin-6-yl)amino)-4-fluorophenyl)-3-(difluoromethoxy)pyrrolidine-1-sulfonamide]: in data set [1], the apparent permeability coefficient (Papp) at 2 h, 1 µM turned out to be 280 nm/s. The efflux ratio at 2 h, 1 µM on BCRP was found to be 2.9; at P-gp (MDR1) it was 1.7. Further, the half-inhibitory concentration (IC50) in data set [2] (setting [4]) came to 3 nM; in the data set on A375 cells it was 9 nM; with H1755 cells it was 35 nM. Also, the Kp in data set [3] lay in the range of 0.41 to 0.55.

As for `Cn1cnc2ccc(Nc3c(F)ccc(NS(=O)(=O)N4CC5CC5C4)c3Cl)c(F)c2c1=O` (stereo not drawn) [Example 30, N-(2-chloro-4-fluoro-3-((5-fluoro-3-methyl-4-oxo-3,4-dihydroquinazolin-6-yl)amino)phenyl)-3-azabicyclo[3.1.0]hexane-3-sulfonamide trifluoroacetate], the apparent permeability coefficient (Papp) at 2 h, 1 µM in data set [1] is 400 nm/s. In addition, the efflux ratio at 2 h, 1 µM is 1.2 on BCRP and 1.5 at P-gp (MDR1). The IC50 in data set [2] (setting [4]) was 2 nM; with A375 cells it was 4 nM; in the data set on H1755 cells, 42 nM. Moreover, in data set [3], the Kp was 0.51 to 0.64.

As to `CO[C@@H]1CCN(S(=O)(=O)Nc2ccc(F)c(Oc3ccc4ncn(C)c(=O)c4c3Cl)c2Cl)C1` [Example 37, (R)-N-(2-chloro-3-((5-chloro-3-methyl-4-oxo-3,4-dihydroquinazolin-6-yl)oxy)-4-fluorophenyl)-3-methoxypyrrolidine-1-sulfonamide], the Papp at 2 h, 1 µM in data set [1] was 290 nm/s. Also, the results for the efflux ratio at 2 h, 1 µM on BCRP and on P-gp (MDR1) were 1.5 and 2.4, respectively. The IC50 in data set [2] (setting [4]) turned out to be 4 nM; in the data set with A375 cells, 4 nM; with H1755 cells it was 33 nM. Besides, the Kp in data set [3] is 0.66 to 0.73.

With `Cn1cnc2ccc(Oc3c(F)ccc(NS(=O)(=O)N4CC[C@@H](F)C4)c3Cl)c(Cl)c2c1=O` [Example 38, (R)-N-(2-chloro-3-((5-chloro-3-methyl-4-oxo-3,4-dihydroquinazolin-6-yl)oxy)-4-fluorophenyl)-3-fluoropyrrolidine-1-sulfonamide], the apparent permeability (Papp) at 2 h, 1 µM in data set [1] was 330 nm/s. The values for the efflux ratio at 2 h, 1 µM on BCRP and at P-gp (MDR1) were 1.8 and 1.2, respectively. The half-inhibitory concentration (IC50) in data set [2] (setting [4]) was 2 nM; in the data set with A375 cells, 5 nM; in the data set with H1755 cells it was 27 nM. Besides, the Kp in data set [3] was in the range of 0.2 to 0.24.

In the case of `Cn1cnc2ccc(Nc3c(F)c(F)cc(NS(=O)(=O)N4CCCC4)c3Cl)c(F)c2c1=O` [Example 40, N-(2-chloro-4,5-difluoro-3-((5-fluoro-3-methyl-4-oxo-3,4-dihydroquinazolin-6-yl)amino)phenyl)pyrrolidine-1-sulfonamide trifluoroacetate], the Papp at 2 h, 1 µM in data set [1] is 290 nm/s. In addition, the efflux ratio at 2 h, 1 µM at BCRP is 2.3; at P-gp (MDR1), 2. In addition, the IC50 in data set [2] (setting [4]) was determined as 2 nM; in the data set with A375 cells, 4 nM; in the data set on H1755 cells, 50 nM. The Kp in data set [3] was in the range of 0.55 to 0.72.

Consider `Cn1cnc2ccc(Nc3c(F)c(F)cc(NS(=O)(=O)N4CC5CC4C5)c3Cl)c(F)c2c1=O` [Example 41, N-(2-chloro-4,5-difluoro-3-((5-fluoro-3-methyl-4-oxo-3,4-dihydroquinazolin-6-yl)amino)phenyl)-2-azabicyclo[2.1.1]hexane-2-sulfonamide trifluoroacetate], for which the Papp at 2 h, 1 µM in data set [1] was determined as 290 nm/s. For the same compound, the efflux ratio at 2 h, 1 µM on BCRP amounted to 2.5; at P-gp (MDR1), 1.9. In addition, the concentration for half-maximal inhibition (IC50) stood at 3 nM in data set [2] (setting [4]), 5 nM with A375 cells and 42 nM in the data set on H1755 cells. Besides, the Kp in data set [3] was 0.35 to 0.45.

As for `Cn1cnc2ccc(Oc3c(F)ccc(NS(=O)(=O)N4CCCC4)c3Cl)c(F)c2c1=O` [Example 44, N-(2-chloro-4-fluoro-3-((5-fluoro-3-methyl-4-oxo-3,4-dihydroquinazolin-6-yl)oxy)phenyl)pyrrolidine-1-sulfonamide trifluoroacetate], in data set [1], the Papp at 2 h, 1 µM was determined as 340 nm/s. Further, the efflux ratio at 2 h, 1 µM was 0.9 at BCRP and 1.4 on P-gp (MDR1). The IC50 in data set [2] (setting [4]) amounted to 2 nM; in the data set on A375 cells it was 3 nM; in the data set with H1755 cells, 56 nM. Further, the Kp in data set [3] is 0.35 to 0.47.

Compound `CO[C@@H]1CCN(S(=O)(=O)Nc2ccc(F)c(Oc3ccc4ncn(C)c(=O)c4c3F)c2Cl)C1` [Example 48, (R)-N-(2-chloro-4-fluoro-3-((5-fluoro-3-methyl-4-oxo-3,4-dihydroquinazolin-6-yl)oxy)phenyl)-3-methoxypyrrolidine-1-sulfonamide trifluoroacetate] came in with an apparent permeability (Papp) at 2 h, 1 µM in data set [1] of 290 nm/s. Further, the values for the efflux ratio at 2 h, 1 µM at BCRP and on P-gp (MDR1) were 1.7 and 2.2, respectively. Further, the 50% inhibitory concentration (IC50) in data set [2] (setting [4]) turned out to be 3 nM; in the data set on A375 cells, 1 nM; with H1755 cells, 36 nM. For the same compound, the Kp in data set [3] fell in the range of 0.29 to 0.33.

In data set [1], `Cc1c(Oc2c(F)ccc(NS(=O)(=O)N3CC[C@@H](F)C3)c2Cl)ccc2ncn(C)c(=O)c12` [Example 70, (R)-N-(2-chloro-3-((3,5-dimethyl-4-oxo-3,4-dihydroquinazolin-6-yl)oxy)-4-fluorophenyl)-3-fluoropyrrolidine-1-sulfonamide] registered an apparent permeability (Papp) at 2 h, 1 µM of 250 nm/s. Also, the efflux ratio at 2 h, 1 µM at BCRP is 1; at P-gp (MDR1), 1.8. Besides, the IC50 was found to be 8 nM in data set [2], 14 nM in the data set with A375 cells and 43 nM in the data set on H1755 cells. In data set [3], the Kp was 0.17 to 0.36.

On to `COC1CN(S(=O)(=O)Nc2ccc(F)c(Nc3ccc4ncn(C)c(=O)c4c3Cl)c2Cl)C1` [Example 129, N-(2-chloro-3-((5-chloro-3-methyl-4-oxo-3,4-dihydroquinazolin-6-yl)amino)-4-fluorophenyl)-3-methoxyazetidine-1-sulfonamide], for which the Papp at 2 h, 1 µM in data set [1] stood at 370 nm/s. For the same compound, the efflux ratio at 2 h, 1 µM was determined as 5.3 on BCRP and 1.6 on P-gp (MDR1). Moreover, the IC50 was 12 nM in data set [2] (setting [4]), 9 nM in the data set on A375 cells and 37 nM with H1755 cells. The Kp in data set [3] lay in the range of 0.18 to 0.22.
